Test results as given in article PMC7413516, “Antidepressant-like activity and safety profile evaluation of 1H-imidazo[2,1-f]purine-2,4(3H,8H)-dione derivatives as 5-HT1A receptor partial agonists” (PLoS ONE, 2020).
Where “and” joins values, the source holds several entries; their conditions need not be identical. Equal values may be shown once.

What was measured:
mice = experiment: Forced swim test (FST) in mice; type: in vivo, Swiss albino mice; conditions: for reduction of immobility time in FST: acute, 60 min before test; for effect of WAY-100635 on the antidepressant-like action of the compound in FST: compound 1.25 mg/kg i.p. + WAY-100635 0.3 mg/kg s.c.; for effect on immobility time in FST after repeated administration: i.p. once daily for 13 consecutive days, AZ-853 0.625 mg/kg, AZ-861 1.25 mg/kg
Excerpt: The investigated compounds AZ-853 (8-(4-(4-(2-fluorophenyl)piperazin-1-yl)butyl)-1,3-dimethyl-1H-imidazo[2,1-f]purine-2,4(3H,8H)-dione and AZ-861 (1,3-dimethyl-8-(4-(4-(3-(trifluoromethyl)phenyl)piperazin-1-yl)butyl)-1H-imidazo[2,1-f]purine-2,4(3H,8H)-dione) were synthesised in the Department of Medicinal Chemistry, Faculty of Pharmacy, Jagiellonian University, and their synthesis was described earlier. AZ-853 and AZ-861 were suspended in 1% aqueous solution of Tween 80, and WAY-100635 (Sigma, Germany) was dissolved in 0.9% saline. In acute experiments, the selected compounds AZ-853 (0.156–2.5 mg/kg) and AZ-861 (0.625–2.5 mg/kg) were injected i.p. once 60 min before tests, whereas WAY-100635 (0.3 mg/kg) was administered subcutaneously (s.c.) 45 min before the test. […] In chronic experiments, AZ-853 and AZ-861 were administered i.p. once a day (between 9:00 AM and 10:00 AM) for 16 consecutive days at the minimum active doses selected from FST experiment, i.e. 0.625 and 1.25 mg/kg, respectively. All compounds were administered to mice at a volume of 10 ml/kg and to rats at a volume of 2 ml/kg. The control groups received 1% aqueous solution of Tween 80.
The experiment was carried out according to the method of Porsolt et al.. Swiss albino mice were individually placed in a glass cylinder (25 cm high; 10 cm in diameter) containing 10 cm of water maintained at 23–25°C, and were left there for 6 min. The total duration of immobility was recorded during the last 4 min of a 6-min. A mouse was regarded as immobile when it remained floating on the water, making only small movements to keep its head above it.
(§1) The Swiss albino mice were used in the experiment. AZ-853 and AZ-861 were injected once daily for 16 consecutive days. On the 1st and 15th day the administration of the compounds, 18-h spontaneous animal activity was registered (see below). FST, as described earlier, was performed on the 14th day just before the next treatment. To ensure that the effects observed in FST are not the result of increased motility of animals, on the 13th day, just before the next administration, the locomotor activity was measured as described earlier, from 2 to 6 min after test start, i.e. in the period identical to the duration of FST. Blood and organ collection was performed on the 17th day at 24 h after the last dose and fasting.

[1] = Body weight measurement in the 17-day experiment; type: in vivo, Swiss albino mice; conditions: for effect on body weight: mice, repeated i.p. once daily, AZ-853 0.625 mg/kg (from 10th day), AZ-861 1.25 mg/kg (2nd, 3rd, 4th day); for body weight Mean / body weight: mouse
Protocol: as §1
The body weight was measured daily immediately prior to administration of the drugs. On the 17th day, the blood was collected from the Swiss albino mice sacrificed by decapitation 20 min after i.p. administration of heparin (2500 units/mouse) and then centrifuged at 600 × g (15 min, 4°C) to separate plasma. The liver, heart, and kidney were also collected and weighed.

[2] = Plasma ALAT and γ-GTP activity after repeated administration; type: in vivo, Swiss albino mice; conditions: mice, AZ-853 0.625, AZ-861 1.25 mg/kg b.w./day
Protocol: as §1
Blood samples were collected from the Swiss albino mice 24 h after the last administration of the tested compounds or vehicle. To determine glucose, cholesterol and triglyceride levels in the plasma, standard enzymatic spectrophotometric tests (Biomaxima S.A. Lublin, Poland) were used. In the presence of appropriate enzyme, the substrate was converted to a colored compound. Absorbance was measured at a wavelength of 500 nm. To determine alanine aminotransferase (ALAT) or γ-glutamyl transpeptidase (γ-GTP) activities in the plasma, the standard enzymatic spectrophotometric test (Biomaxima S.A.) was used. Absorbance was measured at 340 nm (ALAT) or 405 nm (γ-GTP).

[3] = target: T1, muscarinic M3 receptor (M3R) (Cavia porcellus, UniProt H0W1Z3); experiment: Smooth muscle relaxant assay: carbachol-induced contraction of isolated guinea pig ileum; conditions: isolated guinea pig small intestine, carbachol 100 μM
T1 construct: from tissue; host or cells: isolated guinea pig ileum
Protocol: The experiment was carried out according to the method described previously. Male guinea pigs were sacrificed by cervical dislocation. The ileum was rapidly removed, rinsed, and cut into segments of 1.5–2.0 cm length. The tissues were mounted on a jacketed 20 mL organ bath (Tissue Organ Bath System; 750 TOBS, DMT, Denmark) filled with Krebs’s solution (NaCl 120 mM, KCl 5.6 mM, MgCl2 2.2 mM, CaCl2 2.4 mM, NaHCO3 19 mM, glucose 10 mM). The bath was aerated with 95 % O2/5 % CO2 and heated at 37°C. During the 60-min incubation period, the organ was rinsed 4 times with fresh Krebs’s buffer, and the tissues were also pre-stimulated by 60 mM KCl solution. The submaximal contraction induced by histamine (Sigma Aldrich) (2 μM) and carbachol (Sigma Aldrich) (100 μM) was evaluated in the presence and absence of the tested compounds. Amplitudes of contraction values were measured in 4 independent experiments.

T1 sequence (H0W1Z3 1-590): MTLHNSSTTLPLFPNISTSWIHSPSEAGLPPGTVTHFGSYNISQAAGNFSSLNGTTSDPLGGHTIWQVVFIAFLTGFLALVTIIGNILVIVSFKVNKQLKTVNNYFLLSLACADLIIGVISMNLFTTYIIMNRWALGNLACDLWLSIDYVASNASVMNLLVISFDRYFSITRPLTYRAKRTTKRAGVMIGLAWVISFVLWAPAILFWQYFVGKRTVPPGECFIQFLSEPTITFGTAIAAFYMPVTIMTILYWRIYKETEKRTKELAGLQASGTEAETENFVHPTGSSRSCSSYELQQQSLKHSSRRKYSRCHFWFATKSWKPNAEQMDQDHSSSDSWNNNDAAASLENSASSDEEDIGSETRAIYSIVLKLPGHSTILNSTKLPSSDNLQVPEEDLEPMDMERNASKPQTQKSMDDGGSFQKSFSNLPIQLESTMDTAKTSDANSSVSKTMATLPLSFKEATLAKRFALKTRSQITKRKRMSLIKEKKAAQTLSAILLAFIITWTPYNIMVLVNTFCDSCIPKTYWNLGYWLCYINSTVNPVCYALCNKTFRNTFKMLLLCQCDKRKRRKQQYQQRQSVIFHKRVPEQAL

Cn1c(=O)c2c(nc3n(CCCCN4CCN(c5ccccc5F)CC4)ccn23)n(C)c1=O [AZ-853, 8-(4-(4-(2-fluorophenyl)piperazin-1-yl)butyl)-1,3-dimethyl-1H-imidazo[2,1-f]purine-2,4(3H,8H)-dione]
reduction of immobility time in FST (mice; 0.625 mg/kg i.p.): approximately 50% | reduction of immobility time in FST (mice; 1.25 mg/kg i.p.): ~58% | reduction of immobility time in FST (mice; 2.5 mg/kg i.p.): ~45% | effect of WAY-100635 on the antidepressant-like action of the compound in FST (mice): completely abolished | effect on immobility time in FST after repeated administration (mice): decreased the immobility time | effect on body weight [1]: slight but significant increase in body weight | body weight Mean ([1]; 0.625 mg/kg, day 1, group mean): 23.45 g | body weight ([1]; 0.625 mg/kg, day 1, individual mouse, 0.625 mg/kg): 24.7 g (2×) and 22.9 g and 21.9 g and 25.0 g and 23.8 g and 23.0 g and 21.7 g (2×) and 25.1 g | body weight Mean ([1]; 0.625 mg/kg, day 2, group mean): 23.55 g | body weight ([1]; 0.625 mg/kg, day 2, individual mouse, 0.625 mg/kg): 24.9 g and 23.5 g and 24.2 g and 22.6 g and 24.5 g and 23.3 g and 22.7 g and 21.2 g and 22.0 g and 26.6 g | body weight Mean ([1]; 0.625 mg/kg, day 3, group mean): 23.90 g | body weight ([1]; 0.625 mg/kg, day 3, individual mouse, 0.625 mg/kg): 25.0 g (2×) and 24.0 g (3×) and 23.0 g (2×) and 22.0 g (2×) and 27.0 g | body weight Mean ([1]; 0.625 mg/kg, day 4, group mean): 23.70 g | body weight ([1]; 0.625 mg/kg, day 4, individual mouse, 0.625 mg/kg): 24.0 g (4×) and 25.0 g and 22.0 g (3×) and 23.0 g and 27.0 g | body weight Mean ([1]; 0.625 mg/kg, day 5, group mean): 23.80 g | body weight ([1]; 0.625 mg/kg, day 5, individual mouse, 0.625 mg/kg): 23.3 g and 23.8 g and 24.9 g and 22.7 g and 24.6 g and 23.7 g and 23.6 g and 22.2 g and 22.8 g and 26.4 g | body weight Mean ([1]; 0.625 mg/kg, day 6, group mean): 23.85 g | body weight ([1]; 0.625 mg/kg, day 6, individual mouse, 0.625 mg/kg): 24.2 g and 23.2 g and 24.4 g and 22.9 g and 24.7 g and 23.9 g and 23.5 g and 21.9 g and 23.4 g and 26.4 g | body weight Mean ([1]; 0.625 mg/kg, day 7, group mean): 24.10 g | body weight ([1]; 0.625 mg/kg, day 7, individual mouse, 0.625 mg/kg): 24.0 g (4×) and 25.0 g (2×) and 23.0 g (3×) and 26.0 g | body weight Mean ([1]; 0.625 mg/kg, day 8, group mean): 24.50 g | body weight ([1]; 0.625 mg/kg, day 8, individual mouse, 0.625 mg/kg): 25.0 g (2×) and 26.0 g (3×) and 23.0 g (3×) and 24.0 g (2×) | body weight Mean ([1]; 0.625 mg/kg, day 9, group mean): 25.00 g | body weight ([1]; 0.625 mg/kg, day 9, individual mouse, 0.625 mg/kg): 25.0 g (2×) and 26.0 g (2×) and 27.0 g (2×) and 23.0 g (2×) and 24.0 g (2×) | body weight Mean ([1]; 0.625 mg/kg, day 10, group mean): 25.14 g | body weight ([1]; 0.625 mg/kg, day 10, individual mouse, 0.625 mg/kg): 25.4 g and 24.9 g and 26.7 g and 23.8 g and 25.2 g and 24.3 g and 24.0 g and 23.7 g and 25.7 g and 27.7 g | body weight Mean ([1]; 0.625 mg/kg, day 11, group mean): 24.68 g | body weight Mean ([1]; 0.625 mg/kg, day 12, group mean): 25.52 g | body weight Mean ([1]; 0.625 mg/kg, day 13, group mean): 25.54 g | body weight Mean ([1]; 0.625 mg/kg, day 14, group mean): 25.91 g | body weight Mean ([1]; 0.625 mg/kg, day 15, group mean): 26.09 g | increase of plasma γ-GTP activity [2]: approximately 435% | plasma ALAT activity vs. control [2]: did not lead to significant changes in ALAT activity | inhibition at 1 µM [3]: 2.5%

Cn1c(=O)c2c(nc3n(CCCCN4CCN(c5cccc(C(F)(F)F)c5)CC4)ccn23)n(C)c1=O [AZ-861, 1,3-dimethyl-8-(4-(4-(3-(trifluoromethyl)phenyl)piperazin-1-yl)butyl)-1H-imidazo[2,1-f]purine-2,4(3H,8H)-dione]
reduction of immobility time in FST (mice; 1.25 mg/kg i.p.): approximately 33% | effect of WAY-100635 on the antidepressant-like action of the compound in FST (mice): attenuation of the anti-immobility effect | effect on immobility time in FST after repeated administration (mice): decreased the immobility time | effect on body weight [1]: slight and significant decrease in body weight | body weight Mean ([1]; 1.25 mg/kg, day 1, group mean): 23.19 g | body weight ([1]; 1.25 mg/kg, day 1, individual mouse, 1.25 mg/kg): 20.6 g and 21.8 g and 22.1 g and 24.2 g and 24.0 g and 23.4 g and 23.1 g and 24.9 g and 26.3 g and 21.5 g | body weight Mean ([1]; 1.25 mg/kg, day 2, group mean): 23.05 g | body weight ([1]; 1.25 mg/kg, day 2, individual mouse, 1.25 mg/kg): 20.7 g and 22.8 g and 22.6 g and 24.2 g and 23.5 g (2×) and 23.1 g and 23.6 g and 24.9 g and 21.6 g | body weight Mean ([1]; 1.25 mg/kg, day 3, group mean): 23.20 g | body weight ([1]; 1.25 mg/kg, day 3, individual mouse, 1.25 mg/kg): 21.0 g (2×) and 22.0 g and 23.0 g and 24.0 g (5×) and 25.0 g | body weight Mean ([1]; 1.25 mg/kg, day 4, group mean): 23.30 g | body weight ([1]; 1.25 mg/kg, day 4, individual mouse, 1.25 mg/kg): 22.0 g (2×) and 23.0 g (3×) and 21.0 g and 24.0 g (2×) and 25.0 g and 26.0 g | body weight Mean ([1]; 1.25 mg/kg, day 5, group mean): 23.70 g | body weight ([1]; 1.25 mg/kg, day 5, individual mouse, 1.25 mg/kg): 21.6 g and 22.5 g and 22.7 g and 24.5 g and 24.0 g and 23.5 g and 24.9 g and 26.3 g and 25.9 g and 21.1 g | body weight Mean ([1]; 1.25 mg/kg, day 6, group mean): 23.76 g | body weight ([1]; 1.25 mg/kg, day 6, individual mouse, 1.25 mg/kg): 21.6 g (2×) and 22.1 g and 22.6 g and 25.1 g and 24.3 g and 23.0 g and 25.3 g and 25.6 g and 26.4 g | body weight Mean ([1]; 1.25 mg/kg, day 7, group mean): 23.90 g | body weight ([1]; 1.25 mg/kg, day 7, individual mouse, 1.25 mg/kg): 22.0 g (3×) and 23.0 g and 25.0 g (2×) and 24.0 g (2×) and 26.0 g (2×) | body weight Mean ([1]; 1.25 mg/kg, day 8, group mean): 24.10 g | body weight ([1]; 1.25 mg/kg, day 8, individual mouse, 1.25 mg/kg): 23.0 g (3×) and 25.0 g (2×) and 24.0 g (2×) and 26.0 g (2×) and 22.0 g | body weight Mean ([1]; 1.25 mg/kg, day 9, group mean): 24.40 g | body weight ([1]; 1.25 mg/kg, day 9, individual mouse, 1.25 mg/kg): 23.0 g (4×) and 26.0 g (3×) and 25.0 g (2×) and 24.0 g | body weight Mean ([1]; 1.25 mg/kg, day 10, group mean): 24.31 g | body weight ([1]; 1.25 mg/kg, day 10, individual mouse, 1.25 mg/kg): 22.5 g and 23.1 g (2×) and 25.2 g and 24.7 g and 24.0 g and 25.0 g and 26.6 g and 26.8 g and 22.1 g | body weight Mean ([1]; 1.25 mg/kg, day 11, group mean): 24.47 g | body weight Mean ([1]; 1.25 mg/kg, day 12, group mean): 24.59 g | body weight Mean ([1]; 1.25 mg/kg, day 13, group mean): 24.59 g | body weight Mean ([1]; 1.25 mg/kg, day 14, group mean): 24.73 g | body weight Mean ([1]; 1.25 mg/kg, day 15, group mean): 25.31 g | increase of plasma γ-GTP activity [2]: did not change activity | plasma ALAT activity vs. control [2]: did not lead to significant changes in ALAT activity | inhibition at 1 µM [3]: 0.17%
